Patent publication US12616751B2, “Photosensitizing antibody-fluorophore conjugates” (The USA, as represented by the Secretary, Department of …, priority 2010, dated 2026)
Where “and” joins values, the source holds several entries; their conditions need not be identical. Identical values can stand only once. Entries after “also recorded” stand apart in the source; their conditions may differ.

Legend:
A431 tumor = assay: In vivo fluorescence imaging of Pan-IR700 in A431 tumors; set-up: species or system mice
Experimental: (§1) To confirm antigen specific localization of Pan-IR700, 1×10^6 of 3T3/HER2 cells (HER1 negative) were injected subcutaneously in the right dorsum at the same time of A431 cells injection. […] Regions of interest (ROI) for both tumor and background were placed for equivalent sized areas containing the same number of pixels. Tumor to background ratio (TBR) was calculated using the following formula: TBR=((mean tumor intensity)−(mean background intensity))/((mean non-tumor intensity)−(mean background intensity)).

3T3/HER2 tumor = assay: In vivo fluorescence imaging of Pan-IR700 in HER1 negative tumor; set-up: species or system mice; settings: mouse, listed as Pan-1R700
Experimental: as §1

MDA-MB-468 cells = assay: In vitro PIT, microscopy before and after; assay type: cell-based
Experimental: For photoimmunotherapy (PIT), cells were seeded on 35 mm cover glass-bottomed dishes and incubated 24 hours. […] Culture medium was replaced with phenol red-free medium after washing with phosphate buffered saline (PBS). Cells were irradiated with light at 670 nm to 690 nm using a red light emitting diode (LED; FluorVivo; INDEC Systems Inc., Capitola, Calif.) with a power density of 2.6 mW cm^−2 as measured with optical power meter (PM 100, Thorlabs, Newton, N.J.). Cell viability was assessed 1 hour after treatment with LIVE/DEAD® Fixable Green Dead Cell Stain Kit (Invitrogen). After the treatment, cells were trypsinized and washed with PBS. Green fluorescent reactive dye was added in the cell suspension and incubated at room temperature for 30 minutes. Cells were then analyzed on flow cytometer (FACS Calibur, BD BioSciences, San Jose, Calif.).
This example describes additional results showing that the disclosed antibody-IR700 compounds selectively kill cells that express the appropriate protein. The photoimmunotherapy (PIT) methods are described in Example 2.

A431 tumors [1] = assay: In vivo FLT imaging after PIT; set-up: species or system mice
Experimental: Reagents. […] All other chemicals used were of reagent grade. […] Then the mixture was purified with a Sephadex G50 column (PD-10; GE Healthcare). The protein concentrations were determined with Coomassie Plus protein assay kit (Pierce Biotechnology) by measuring light absorption at 595 nm (8453 Value System; Agilent Technologies). […] The number of IR700 per antibody was approximately 4 for the 1:4.5 reaction conditions. The addition of 0.4% SDS to the sample dissociated the fluorophores from each other, effectively causing dequenching. Quenching efficiency (QE) for a particular conjugation is defined as the fluorescence intensity with SDS divided by fluorescence intensity without SDS. […] Pan-1R700 was kept at 4° C. in the refrigerator as a stock solution. Fluorescence lifetime measurements. FLT experiments were performed with the eXplore OptixTm-MX2 system (ART Advanced Research Technologies, Inc.) (Hutchinson et al., Biophys J 68:1574-82, 1995; Ma et al., Appl Opt 46:1650-7, 2007). A fixed pulsed laser diode was used as an excitation source at a wavelength of 670 nm. Region of interest (ROI) measurements with a spot size of 1.5 mm were selected at the image plane. […] Lifetime analysis was performed by using the ART OptiView (ART Advanced Research Technologies, Inc.). Lifetime values and lifetime mapping were calculated to fit fluorescence temporal point-spread functions (TPSFs) as single-exponential models with the Fit TPSF tool. Photoimmunotherapy for in vitro and in vivo models. PIT was performed with a red light-emitting diode (LED) light at 680 to 700 nm wavelength (Tech-LED, Marubeni America Co.) (Mitsunaga et al., Bioconjug Chem. 23:604-9, 2012). Power densities were measured with an optical power meter (PM 100, Thorlabs). Determination of FLT for Pan-IR700. Samples of Pan-IR700 at concentrations of 2.5, 5, 20, 40 pg/mL were prepared by dilution with PBS. The fluorescence intensities and lifetimes of each sample were determined using the Optix MX2 system at room temperature within a 1.7 ml centrifuge tube. To investigate the effect of PIT using Pan-1R700, the FLT of each sample at the concentration of 50 pg/mL was measured after irradiating the samples at a PIT dose of 0, 2, 4, 8, 15, 30 J/cm2. Cell line. […] The cell line was grown in RPMI 1640 (Life Technologies) containing 10% fetal bovine serum (Life Technologies), 0.03% L-glutamine, 100 units/mL penicillin, and 100 μg/mL streptomycin in 5% CO2 at 37° C. Cell pellet FLT studies A431. Cells were plated on […] cell culture flasks and incubated until confluent. Then Pan-IR700 conjugate was added to the media (1 pg/mL), and cells were incubated for 24 h at 37° C. Upon completion of incubation, cells were removed from the flasks, and centrifuged to obtain pellets. The resulting cell pellets were washed with PBS×3 and placed in 1.7 mL centrifuge tubes. The fluorescence intensities and lifetimes of each sample were then obtained. […] After that, these pellets were gently washed with PBS×1 and fluorescence intensity and lifetime images were obtained. To detect the antigen specific localization of IR700 and to confirm the morphological changes of A431 cells before and after PIT, fluorescence microscopy was performed using Olympus BX61 microscope (Olympus America) equipped with the following filters: a 590-650 nm excitation filter, a 665-740 nm band pass emission filter. […]

A431 tumors [2] = assay: Histological analysis immediately after PIT; assay type: in vivo, mice

Which results are given for “Pan-IR700: Panitumumab (anti-human EGFR IgG2 MAb) conjugated to IR700; about 3 to 4 IR700 per antibody”?
fluorescence intensity of tumor, 300 μg versus 50 μg injection (A431 tumor; 1 day after injection): more than 3 times; TBR, 300 μg versus 50 μg injection (A431 tumor; mouse, in vivo): lower; fluorescence intensity in tumor over time (A431 tumor; mouse, in vivo): decreased gradually over days; other localization of IR700 (biodistribution) (A431 tumor; mouse, in vivo): no other specific localization of IR700 except for bladder accumulation on day 1; tumor localization (in vivo fluorescence imaging) (A431 tumor; mouse, in vivo): localized to the A431 tumor; fluorescence of HER1 negative tumor (3T3/HER2 tumor): the same as that of background; also recorded: did not show detectable fluorescence; cell killing by PIT (microscopy) (MDA-MB-468 cells): specifically killed; FLT shortening compared with untreated control (A431 tumors [1]; 10 J/cm^2, 48 hours after PIT): 7.7%; FLT immediately after PIT, compared with no treatment controls (A431 tumors [1]; 30 J/cm^2): 61.5+/−5.1% and 61.5 ± 15.1%; FLT immediately after PIT, of untreated tumors in the same mouse (A431 tumors [1]; 30 J/cm^2): 61.5%+/−5.05; FLT immediately after PIT, compared with no treatment controls (A431 tumors [1]; 50 J/cm^2): 69.1+/−10.9%; FLT immediately after PIT, of untreated tumors in the same mouse (A431 tumors [1]; 50 J/cm^2): 69.0%+110.92; necrosis (H-E histology) (A431 tumors [2]; 10 J/cm^2): necrotic cell damage was found in only limited areas; necrosis (H-E histology) (A431 tumors [2]; 30 or 50 J/cm^2): Necrotic damage was diffuse and intense
